The source of these data is patent US4709032A, “Isoquinolinesulfonamide derivatives” (Asahi Kasei Kogyo Kabushiki Kaisha, priority 1982, dated 1987).

In general, LD50 refers to the dose at which mortality reaches 50%.

One series can be described thus: Acute toxicity in mice. Particulars: in vivo. The procedure:
(§1) The acute toxicity of the N-(2-guanidinoethyl)-5-isoquinolinesulfonamide dihydrochloride was measured by giving male ddY-strain mouse and rat an intravenous administration and an oral administration.
The acute toxicity of the hydrochloric acid salt of other compounds was measured by giving male ddY-strain mice an intravenous administration.

Another series in a line: Acute toxicity in rats. Particulars: in vivo, male rat, dihydrochloride. The procedure: as §1
The subject of another series is mesenteric artery. Description: Relaxation of rabbit mesenteric artery contracted with KCl (isolated helical strip). In kind it is cell-based. Particulars: Oryctolagus cuniculus; concentration for 50% relaxation (complete relaxation = 100%); KCl 15-20 mM contraction; read-out: Relaxation of Mesenteric Artery ED50. The procedure: When, for example, N-(2-guanidinoethyl)-5-isoquinolinesulfonamide, i.e., compound (2) was added and a complete relaxation was designated 100%, the concentration which could bring about a relaxation of 50%, i.e., ED50 was 1 μM.
After a home bred rabbit of a Japanese species weighing about 3 Kg was subjected to bloodletting, resulting in death and then to abdominal incision, the mesenteric artery was taken out, cut into helicoids of 2 mm×25 mm and suspended in a 20 ml organ bath filled with a Krebs-Henseleit solution into which a mixed gas of 95% by volume of O2 and 5% by volume of CO2 was introduced and one end of the artery was connected with an isometric transducer. When a load of 1.5 g was applied to the artery, the contraction and the relaxation of the artery were recorded as a weight on the transducer (a product of Nippon Koden K.K., Japan, "FD Pickup TB-912T"). The relaxation of the mesenteric artery was observed by adding the isoquinolinesulfonamide derivatives and their pharmaceutically acceptable acid addition salts of this invention to the mesenteric artery at the condition of about one half of the maximum contraction with KCl concentration of 15-20 mM. When the complete relaxation of the mesenteric artery was designated 100%, the concentration of the isoquinolinesulfonamide derivatives and their pharmaceutically acceptable acid addition salts which brought about a relaxation of 50% is shown in Table 26.

In a further series the test system is femoral artery. The series is described as follows: Effect on blood flow volume in femoral artery of anesthetized dogs. Format: in vivo, dog of mixed breed. Particulars: intravenous, 1 mg/Kg (mm/Kg [sic]). The protocol:
(§2) The effect of the isoquinolinesulfonamide derivatives and the pharmaceutically acceptable acid addition salts of this invention on the vasodilatation of the femoral and vertebral arteries can be measured by anesthetizing a dog of mixed breed weighing 8 to 15 Kg by an intravenous administration of 35 mg/Kg of pentbarbital, providing an acute type probe (a product of Nippon Koden K.K., Japan) with the femoral and vertebral arteries, administering the isoquinolinesulfonamide derivatives and the pharmaceutically acceptable acid addition salts to the femoral vein through a polyethylene tube inserted into the femoral vein side chain and measuring the blood flow volume with an electromagnetic flowmeter (a product of Nippon Koden K.K., Japan, "MFV-1200"). 1 mg/Kg of N-(2-guanidinoethyl)-5-isoquinolinesulfonamide, i.e., Compound (2) was intravenously administered, the increased blood flow volumes in the vertebral artery and in the femoral artery were 95% and 37%. And the duration time is more than 30 minutes.
(§3) The effect on the vasodilatation of the femoral and vertebral arteries was measured by anesthetizing a dog of mixed breed weighing 8 to 15 Kg by an intravenous administration of 35 mg/Kg of pentbarbital, providing an acute type probe (a product of Nippon Koden K.K., Japan) with the femoral and vertebral arteries, administering to the femoral vein through a polyethylene tube inserted into the femoral vein side chain, measuring the blood flow volume with an electromagnetic blood flowmeter (a product of Nippon Koden K.K., Japan, "MFV-1200") and measuring the change of blood pressure.

Another series deals with vertebral artery. The series is described as follows: Effect on blood flow volume in vertebral artery of anesthetized dogs. As to conditions: intravenous, 1 mg/Kg (mm/Kg [sic]). Format: in vivo, dog of mixed breed. The procedure:
as §2, §3

The nature of series [1]: Hypotensive action (change of blood pressure) in anesthetized dogs. In kind it is in vivo, dog of mixed breed. As to conditions: intravenous, 1 (mm/Kg [sic]). The protocol: as §3
Series [2] has as its system femoral and vertebral arteries. Description: Duration time of effect in anesthetized dogs (blood flow volume / blood pressure). Format: in vivo, dog of mixed breed. Particulars: intravenous, 1 mg/Kg (mm/Kg [sic]). The protocol: as §2, §3
Setting [3] is: mouse, intravenous administration, male ddY-strain mice, hydrochloric acid salt.

For the compound `Cl.Cl.N=C(N)NCCNS(=O)(=O)c1cccc2cnccc12` [N-(2-guanidinoethyl)-5-isoquinolinesulfonamide dihydrochloride], the 50% lethal dose (LD50) in the series “Acute toxicity in mice” (intravenous administration, male mouse, dihydrochloride) is 59 mg/kg; in the series “Acute toxicity in mice” (oral administration, male mouse, dihydrochloride), 1480 mg/kg; in “Acute toxicity in rats” (intravenous administration), 64 mg/kg; in the series “Acute toxicity in rats” (oral administration), 1160 mg/kg.
For `N=C(N)NCC(CNS(=O)(=O)c1cccc2cnccc12)c1ccccc1` (stereo not shown) [Compound 31, N-(3-Guanidino-2-phenylpropyl)-5-isoquinolinesulfonamide], the EC50 in the series with mesenteric artery was determined as 2 µM. Besides, the “Increased Blood Flow Volume in Femoral Artery” value in the series with femoral artery is listed as 30%. Besides, the “Increased Blood Flow Volume in Vertebral Artery” value with vertebral artery came to 75%. The “Average Decreased Blood Pressure” value in series [1] worked out at 15 mmHg. For the same compound, the “Duration Time” value in series [2] came out at 28 min. Also, the median lethal dose (LD50) in “Acute toxicity in mice” (setting [3]) is 80 mg/kg.
On to `CC(CCCCC(C)NS(=O)(=O)c1cccc2cnccc12)NC(=N)N` (stereo not shown) [Compound 43, N-(6-Guanidino-1-methylheptyl)-5-isoquinolinesulfonamide], for which, in the series on mesenteric artery, the EC50 came out at 5 µM. Moreover, the “Increased Blood Flow Volume in Femoral Artery” value with femoral artery amounted to 32%. Besides, in the series with vertebral artery, the “Increased Blood Flow Volume in Vertebral Artery” value amounted to 68%. In series [1], the “Average Decreased Blood Pressure” value amounted to 15 mmHg. For the same compound, the “Duration Time” value in series [2] came out at 25 min. Besides, in the series “Acute toxicity in mice” (setting [3]), the LD50 amounted to 66 mg/kg.
